Assay results from US20230157996A1, “SMALL-MOLECULE INHIBITOR TARGETING EB VIRUS NUCLEAR ANTIGEN PROTEIN, PREPARATION METHOD AND USE THEREOF” (priority 2020, published 2023).

These compounds were tested on C666-1 cells (assay: C666-1 cell viability single concentration (50 μM) inhibition rate (Resazurin)). Conditions: Homo sapiens, C6661, 72 h, 50 μM compound, 72 hours, C666-1 cells; read-out: C666-1 cell viability single concentration (50 μM) inhibition rate, Ratio* (Inh %).
Assay type: cell-based
Outline: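 Resazurin fluorescence (560/590 nm, 3 h development) gave the proliferation inhibition rate, normalised to DMSO-treated and cell-free blank wells. Compound was tested at a single 50 μmol/L final concentration on C666-1 cells for 72 h at 37° C, with duplicate wells, after 24 h seeding.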

Compound | inhibition at 50 µM
CS(=O)(=O)Nc1nc(-c2ccc(OC3CN(c4cccc(C(=O)O)c4-n4cccc4)C3)cc2)cs1 [Example 262, 3-(3-(4-(2-(methylsulfonamido)thiazol-4-yl)phenoxy)azetidin-1-yl)-2-(1H-pyrrol-1-yl)benzoic acid] | < 10%
COC(=O)c1cccc(N2CC(Oc3ccc(C(=O)N4CCOCC4)cc3)C2)c1-n1cccc1 [Example 265, Methyl 3-(3-(4-(morpholinyl-4-carbonyl)phenoxy)azetidin-1-yl)-2-(1H-pyrrol-1-yl)benzoate] | 10 to 30%
COC(=O)c1cccc(N2CC(Oc3ccc(C(=O)Nc4ccc(F)cc4)cc3)C2)c1-n1cccc1 [Example 267, Methyl 3-(3-(4-((4-fluorophenyl)carbamoyl)phenoxy)azetidin-1-yl)-2-(1H-pyrrol-1-yl)benzoate] | < 10%
O=C(Nc1ccc(F)cc1)c1ccc(OC2CN(c3cccc(C(=O)O)c3-n3cccc3)C2)cc1 [Example 268, 3-(3-(4-((4-fluorophenyl)carbamoyl)phenoxy)azetidin-1-yl)-2-(1H-pyrrol-1-yl)benzoic acid] | < 10%
COC(=O)c1cccc(-c2cn(-c3ccc(CO)cc3)nn2)c1-c1ccc2cc[nH]c2c1 [Example 269, Methyl 3-(1-(4-(hydroxymethyl)phenyl)-1H-1,2,3-triazol-4-yl)-2-(1H-indol-6-yl)benzoate] | 30 to 50%
COC(=O)c1cccc(C#CN2Cc3ccccc3S2(=O)=O)c1-n1cccc1 [Example 270] | < 10%
COC(=O)c1cccc(C#CN(Cc2ccccc2)S(=O)(=O)c2ccc(C)cc2)c1-n1cccc1 [Example 271, Methyl 3-(((N-benzyl-4-methylphenyl)sulfonamido)ethynyl)-2-(1H-pyrrol-1-yl)benzoate] | > 50%
COC(=O)c1cccc(C2CC2c2ccccc2)c1-n1cccc1 (stereo not shown) [Example 272, Methyl 3-(2-phenylcyclopropyl)-2-(1H-pyrrol-1-yl)benzoate] | 10 to 30%
COc1ccc(C(O)C23CC(c4cccc(C(=O)O)c4)(C2)C3)cc1 (stereo not shown) [Example 273, 3-(3-(hydroxyl(4-methoxyphenyl)methyl)bicyclo[1. 1.1]pentan-1-yl)benzoic acid] | < 10%
COC(=O)c1cccc(N2CC3(CN(c4ccccc4)C3)C2)c1-n1cccc1 [Example 274, Methyl 3-(6-phenyl-2,6-diazaspiro[3.3]heptan-2-yl)-2-(1H-pyrrol-1-yl)benzoate] | < 10%
COC(=O)c1cccc(N2CC3(CN(c4ccccc4N)C3)C2)c1N [Example 275, Methyl 2-amino-3-(6-(2-aminophenyl)-2,6-diazaspiro[3.3]heptan-2-yl)benzoate] | 10 to 30%
O=C(O)c1cccc(N2CC(Oc3ccc(CO)cc3)C2)c1-c1ccco1 [Example 276] | < 10%
COC(=O)c1cccc(N2CC(Oc3ccc(CO)cc3)C2)c1-c1ccc2ccoc2c1 [Example 277] | 10 to 30%
N#Cc1cccc(-c2c(C(=O)O)cccc2N2CC(Oc3ccc(CO)cc3)C2)c1 [Example 278] | 10 to 30%
COC(=O)c1cccc(N2CC(Oc3ccc(CO)cc3)C2)c1-c1cccc(C(=O)O)c1 [Example 279] | 10 to 30%
CS(=O)(=O)Nc1cccc(-c2c(C(=O)O)cccc2N2CC(Oc3ccc(CO)cc3)C2)c1 [Example 280] | < 10%

Compound | inhibition at 50 µM
N#Cc1cc(-c2c(C(=O)O)cccc2N2CC(Oc3ccc(CO)cc3)C2)ccc1F [Example 281, 3′-cyano-4′-fluoro-6-(3-(4-(hydroxymethyl)phenoxy)azetidin-1-yl)-[1,1′-biphenyl]-2-formic acid] | < 10%
COC(=O)c1cccc(N2CC(Oc3cccc(C(=O)O)c3)C2)c1N [Example 282, Methyl 2-amino-3-(3-(3-carboxylphenoxy)azetidin-1-yl)benzoate] | < 10%
COC(=O)c1cccc(N2CC(Oc3ccc(CNS(=O)(=O)c4ccc(C)cc4)cc3)C2)c1-n1cccc1 [Example 283, Methyl 3-(3-(4-(((4-methylphenyl)sulfonamido)methyl)phenoxy)azetidin-1-yl)-2-(1H-pyrrol-1-yl)benzoate] | > 50%
COC(=O)c1cccc(N2CC(Oc3cc(F)nc(F)c3)C2)c1-n1cccc1 [Example 284, Methyl 3-(3-((2,6-difluoropyridin-4-yl)oxy)azetidin-1-yl)-2-(1H-pyrrol-1-yl)benzoate] | < 10%
O=C(O)c1cccc(N2CC(Oc3cc(F)nc(F)c3)C2)c1-n1cccc1 [Example 285, 3-(3-((2,6-difluoropyridin-4-yl)oxy)azetidin-1-yl)-2-(1H-pyrrol-1-yl)benzoic acid] | < 10%
COC(=O)c1cccc(N2CC(Oc3ccc([N+](=O)[O-])cc3)C2)c1-n1cccc1 [Example 286, Methyl 3-(3-(4-nitrophenoxy)azetidin-1-yl)-2-(1H-pyrrol-1-yl)benzoate] | 10 to 30%
COC(=O)c1cccc(N2CC(Oc3cccc(-c4csc(NS(C)(=O)=O)n4)c3)C2)c1-n1cccc1 [Example 288, Methyl 3-(3-(3-(2-(methylsulfonamido)thiazol-4-yl)phenoxy)azetidin-1-yl)-2-(1H-pyrrol-1-yl)benzoate] | < 10%
COc1ccccc1NC(=O)Nc1ccc(OC2CN(c3cccc(C(=O)O)c3-n3cccc3)C2)cc1 [Example 289, 3-(3-(4-(3-(2-methoxyphenyl)ureido)phenoxy)azetidin-1-yl)2-(1H-pyrrol-1-yl)benzoic acid] | 10 to 30%
COC(=O)c1cccc(N2CC(Oc3ccc(Oc4ccc(C(F)(F)F)cc4)cc3)C2)c1-n1cccc1 [Example 291, Methyl 3-(3-(4-(4-(trifluoromethyl)phenoxy)phenoxy)azetidin-1-yl)2-(1H-pyrrol-1-yl)benzoate] | < 10%
COC(=O)c1cccc(N2CC(Oc3ccc(Oc4cccc(C(C)=O)c4)cc3)C2)c1-n1cccc1 [Example 293, Methyl 3-(3-(4-(3-acetylphenoxy)phenoxy)azetidin-1-yl)-2-(1H-pyrrol-1-yl)benzoate] | 10 to 30%
CC(=O)c1cccc(Oc2ccc(OC3CN(c4cccc(C(=O)O)c4-n4cccc4)C3)cc2)c1 [Example 294, 3-(3-(4-(3-acetylphenoxy)phenoxy)azetidin-1-yl)-2-(1H-pyrrol-1-yl)benzoic acid] | < 10%
COC(=O)c1cccc(N2CC(Oc3cccc(NC(=O)Nc4ccc(OC(F)(F)F)cc4)c3)C2)c1-n1cccc1 [Example 295, Methyl 3-(3-(3-(3-(4-(trifluoromethoxy)phenyl)ureido)phenoxy)azetidin-1-yl)-2-(1H-pyrrol-1-yl)benzoate] | > 50%
O=C(Nc1ccc(OC(F)(F)F)cc1)Nc1cccc(OC2CN(c3cccc(C(=O)O)c3-n3cccc3)C2)c1 [Example 296, 3-(3-(3-(3-(4-(trifluoromethoxy)phenyl)ureido)phenoxy)azetidin-1-yl)-2-(1H-pyrrol-1-yl)benzoic acid] | < 10%
COC(=O)c1cccc(N2CC(Oc3cccc(CO)c3)C2)c1-n1cccc1 [Example 297, Methyl 3-(3-(3-(hydroxymethyl)phenoxy)azetidin-1-yl)-2-(1H-pyrrol-1-yl)benzoate] | 30 to 50%
O=C(O)c1cccc(N2CC(Oc3cccc(CO)c3)C2)c1-n1cccc1 [Example 298, 3-(3-(3-(hydroxymethyl)phenoxy)azetidin-1-yl)-2-(1H-pyrrol-1-yl)benzoic acid] | < 10%
